Where two headings read alike, the source gives them in different places.
How the values were obtained:
[1] = molecular target: WRN (BV08), human Werner helicase (Uniprot Q14191, amino acids 517-1235 with L1074F point mutation) (Homo sapiens (Human), UniProt Q14191, L1074F); assay: WRN (BV08) ADP-Glo assay; format: biochemical; conditions: class symbols A-E, read-out: ADP-Glo_hWRN_IC50
[2] = test system: p21 induction in HCT116 cells; assay: p21 induction in HCT116 cells; format: cell-based; conditions: Homo sapiens, HCT-116, 24 h, read-out: P21_EC50
Outline: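 EC50 from non-linear curve fit of p21 immunofluorescence (800 nm), with GAPDH (700 nm) read alongside. DMSO and a reference WRN inhibitor served as low and high controls. Cells (2,000/well) got 11 compound concentrations in duplicate for 24 h at 37 °C.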

[3] = HCT116 cells, 24 h compound incubation

Sequence of WRN (BV08), human Werner helicase (Uniprot Q14191, amino acids 517-1235 with L1074F point mutation) (Q14191 other isoform, or with tags, fused parts or gaps L1074F (already in the parent)): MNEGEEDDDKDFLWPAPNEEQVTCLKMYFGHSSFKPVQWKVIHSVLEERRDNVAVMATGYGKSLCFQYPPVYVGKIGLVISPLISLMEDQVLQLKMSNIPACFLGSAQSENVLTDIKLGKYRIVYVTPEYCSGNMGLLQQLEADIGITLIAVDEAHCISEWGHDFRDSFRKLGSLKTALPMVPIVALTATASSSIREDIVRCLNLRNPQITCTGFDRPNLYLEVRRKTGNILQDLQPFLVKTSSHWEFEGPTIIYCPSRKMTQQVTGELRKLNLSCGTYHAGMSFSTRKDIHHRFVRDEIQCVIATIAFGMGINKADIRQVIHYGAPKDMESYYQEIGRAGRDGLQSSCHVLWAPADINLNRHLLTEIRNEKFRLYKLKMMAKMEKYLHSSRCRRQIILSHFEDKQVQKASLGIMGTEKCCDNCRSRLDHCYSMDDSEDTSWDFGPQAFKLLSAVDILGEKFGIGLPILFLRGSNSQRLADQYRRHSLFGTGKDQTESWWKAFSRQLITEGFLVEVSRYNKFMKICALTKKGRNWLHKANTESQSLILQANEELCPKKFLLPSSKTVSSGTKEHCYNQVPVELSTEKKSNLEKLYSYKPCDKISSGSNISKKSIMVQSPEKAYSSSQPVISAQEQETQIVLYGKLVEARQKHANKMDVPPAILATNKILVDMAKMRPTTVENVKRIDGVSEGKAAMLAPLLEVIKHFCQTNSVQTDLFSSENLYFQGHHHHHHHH

IC50 [1] [nM] | EC50 [2, 3] [nM] | Structure (SMILES) | EC50 [2] [nM]
5 to 50 | < 500 | CCc1c(N2CCN(C(=O)c3ncnc(C)c3O)[C@H]3CC[C@@H]32)c(=O)c2nc(N3CCCC3)cnc2n1CC(=O)Nc1ccc(C(F)(F)F)cc1Cl [I-105, N-(2-chloro-4-(trifluoromethyl)phenyl)-2-(6-ethyl-7-((1S,6S)-5-(5-hydroxy-6-methylpyrimidine-4-carbonyl)-2,5-diazabicyclo[4.2.0]octan-2-yl)-8-oxo-2-(pyrrolidin-1-yl)pyrido[2,3-b]pyrazin-5(8H)-yl)acetamide] | –
≤ 5 | < 500 | CCc1c(N2CCN(C(=O)c3ncnc(C)c3O)[C@H]3CC[C@@H]32)c(=O)c2nc(N(C)C)c(C)nc2n1CC(=O)Nc1ccc(C(F)(F)F)cc1Cl [I-107, N-(2-chloro-4-(trifluoromethyl)phenyl)-2-(2-(dimethylamino)-6-ethyl-7-((1S,6S)-5-(5-hydroxy-6-methylpyrimidine-4-carbonyl)-2,5-diazabicyclo[4.2.0]octan-2-yl)-3-methyl-8-oxopyrido[2,3-b]pyrazin-5(8H)-yl)acetamide] | –
100 to 500 | > 5000 | CCc1c(N2CCN(C(=O)c3ncnc(C)c3O)CC2)c(=O)c2nc(N(C)C)cnc2n1CC(=O)NC12CC(C(F)(F)F)(C1)C2 [I-108, 2-(2-(dimethylamino)-6-ethyl-7-(4-(5-hydroxy-6-methylpyrimidine-4-carbonyl)piperazin-1-yl)-8-oxopyrido[2,3-b]pyrazin-5(8H)-yl)-N-(3-(trifluoromethyl)bicyclo[1.1.1]pentan-1-yl)acetamide] | –
100 to 500 | > 5000 | CCc1c(N2CCN(C(=O)c3ncnc(C)c3O)[C@H]3CC[C@@H]32)c(=O)c2nc(N(C)C)cnc2n1CC(=O)NC12CC(C(F)(F)F)(C1)C2 [I-110, 2-(2-(dimethylamino)-6-ethyl-7-((1S,6S)-5-(5-hydroxy-6-methylpyrimidine-4-carbonyl)-2,5-diazabicyclo[4.2.0]octan-2-yl)-8-oxopyrido[2,3-b]pyrazin-5(8H)-yl)-N-(3-(trifluoromethyl)bicyclo[1.1.1]pentan-1-yl)acetamide] | –
≤ 5 | < 500 | CCc1c(N2CCN(C(=O)c3ncnc(C)c3O)[C@H]3CC[C@@H]32)c(=O)c2nc(C=C(C)C)nnc2n1CC(=O)Nc1ccc(C(F)(F)F)cc1Cl [I-111, N-(2-chloro-4-(trifluoromethyl)phenyl)-2-(7-ethyl-6-((1S,6S)-5-(5-hydroxy-6-methylpyrimidine-4-carbonyl)-2,5-diazabicyclo[4.2.0]octan-2-yl)-3-(2-methylprop-1-en-1-yl)-5-oxopyrido[3,2-e] [1,2,4]triazin-8(5H)-yl)acetamide] | –
5 to 50 | < 500 | CCc1c(N2CCN(C(=O)c3ncnc(C)c3O)CC2)c(=O)c2nc3cc(C)oc3nc2n1CC(=O)Nc1ccc(C(F)(F)F)cc1Cl [I-112, N-(2-chloro-4-(trifluoromethyl)phenyl)-2-(7-ethyl-6-(4-(5-hydroxy-6-methylpyrimidine-4-carbonyl)piperazin-1-yl)-2-methyl-5-oxofuro[2,3-b]pyrido[3,2-e]pyrazin-8(5H)-yl)acetamide] | –
≤ 5 | < 500 | CCc1c(N2CCN(C(=O)c3ncnc(C)c3O)CC2)c(=O)c2nc3sc(C)cc3nc2n1CC(=O)Nc1ccc(C(F)(F)F)cc1Cl [I-113, N-(2-chloro-4-(trifluoromethyl)phenyl)-2-(6-ethyl-7-(4-(5-hydroxy-6-methylpyrimidine-4-carbonyl)piperazin-1-yl)-2-methyl-8-oxopyrido[2,3-b]thieno[2,3-e]pyrazin-5(8H)-yl)acetamide] | –
5 to 50 | < 500 | CCc1c(N2CCN(C(=O)c3ncnc(C)c3O)[C@H]3CC[C@@H]32)c(=O)c2nc3nc(C)sc3nc2n1CC(=O)Nc1ccc(C(F)(F)F)cc1Cl [I-114, N-(2-chloro-4-(trifluoromethyl)phenyl)-2-(6-ethyl-7-((1S,6S)-5-(5-hydroxy-6-methylpyrimidine-4-carbonyl)-2,5-diazabicyclo[4.2.0]octan-2-yl)-2-methyl-8-oxopyrido[2,3-b]thiazolo[4,5-e]pyrazin-5(8H)-yl)acetamide] | –
5 to 50 | > 5000 | CCc1c(N2CCN(C(=O)c3ncnc(C)c3O)CC2)c(=O)c2nc3cc(C)sc3nc2n1CC(=O)NC12CC(C(F)(F)F)(C1)C2 [I-115, 2-(7-ethyl-6-(4-(5-hydroxy-6-methylpyrimidine-4-carbonyl)piperazin-1-yl)-2-methyl-5-oxopyrido[2,3-b]thieno[3,2-e]pyrazin-8(5H)-yl)-N-(3-(trifluoromethyl)bicyclo[1.1.1]pentan-1-yl)acetamide] | –
5 to 50 | 500 to 2000 | CCc1c(N2CCN(C(=O)c3ncnc(C)c3O)CC2)c(=O)c2nc3c(nc2n1CC(=O)Nc1ccc(C(F)(F)F)cc1Cl)CCN3C [I-116, N-(2-chloro-4-(trifluoromethyl)phenyl)-2-(6-ethyl-7-(4-(5-hydroxy-6-methylpyrimidine-4-carbonyl)piperazin-1-yl)-1-methyl-8-oxo-1,2,3,8-tetrahydro-5H-pyrido[2,3-b]pyrrolo[2,3-e]pyrazin-5-yl)acetamide] | –
5 to 50 | < 500 | CCc1c(N2CCN(C(=O)c3ncnc(C)c3O)CC2)c(=O)c2nc(C=C3CC(OC)C3)cnc2n1CC(=O)Nc1ccc(C(F)(F)F)cc1Cl (centres unmarked) [I-117, N-(2-chloro-4-(trifluoromethyl)phenyl)-2-(6-ethyl-7-(4-(5-hydroxy-6-methylpyrimidine-4-carbonyl)piperazin-1-yl)-2-((3-methoxycyclobutylidene)methyl)-8-oxopyrido[2,3-b]pyrazin-5(8H)-yl)acetamide] | –
5 to 50 | 500 to 2000 | CCc1c(N2CCN(C(=O)c3ncnc(C)c3O)C[C@@H]2C)c(=O)c2nc(N(C)C)nnc2n1CC(=O)Nc1ccc(C(F)(F)F)cc1Cl [I-118, (S)—N-(2-chloro-4-(trifluoromethyl)phenyl)-2-(3-(dimethylamino)-7-ethyl-6-(4-(5-hydroxy-6-methylpyrimidine-4-carbonyl)-2-methylpiperazin-1-yl)-5-oxopyrido[3,2-e] [1,2,4]triazin-8(5H)-yl)acetamide] | –
5 to 50 | < 500 | CCc1c(N2CCN(C(=O)c3ncnc(C)c3O)[C@H]3CC[C@@H]32)c(=O)c2nc(N(C)C)cnc2n1CC(=O)Nc1ccc(OC(F)(F)F)cc1 [I-120, 2-[2-(dimethylamino)-6-ethyl-7-[(1S,6S)-5-(5-hydroxy-6-methylpyrimidine-4-carbonyl)-2,5-diazabicyclo[4.2.0]octan-2-yl]-8-oxo-5H,8H-pyrido[2,3-b]pyrazin-5-yl]-N-[4-(trifluoromethoxy)phenyl]acetamide] | –
5 to 50 | < 500 | CCc1c(N2CCN(C(=O)c3ncnc(C)c3O)[C@H]3CC[C@@H]32)c(=O)c2nc(N(C)C)cnc2n1CC(=O)Nc1ccc(C(F)(F)F)cc1F [I-121, 2-(2-(dimethylamino)-6-ethyl-7-((1S,6S)-5-(5-hydroxy-6-methylpyrimidine-4-carbonyl)-2,5-diazabicyclo[4.2.0]octan-2-yl)-8-oxopyrido[2,3-b]pyrazin-5(8H)-yl)-N-(2-fluoro-4-(trifluoromethyl)phenyl)acetamide] | –
5 to 50 | < 500 | CCc1c(N2CCN(C(=O)c3ncnc(C)c3O)[C@H]3CCC[C@@H]32)c(=O)c2nc3cc(C)oc3nc2n1CC(=O)Nc1ccc(C(F)(F)F)cc1Cl [I-123, 2-{11-[(4aS,7aS)-4-(5-hydroxy-6-methylpyrimidine-4-carbonyl)-octahydro-1H-cyclopenta[b]pyrazin-1-yl]-12-ethyl-5-methyl-10-oxo-4-oxa-2,8,13-triazatricyclo[7.4.0.0^{3,7}]trideca-1,3(7),5,8,11-pentaen-13-yl}-N-[2-chloro-4-(trifluoromethyl)phenyl]acetamide] | –
5 to 50 | < 500 | CCc1c(N2CCN(C(=O)c3ncnc(C)c3O)[C@H]3CC[C@@H]32)c(=O)c2cc(N(C)C)cnc2n1CC(=O)Nc1ccc(C(F)(F)F)cc1Cl [I-124, N-[2-chloro-4-(trifluoromethyl)phenyl]-2-[6-(dimethylamino)-2-ethyl-3-[(1S,6S)-5-(5-hydroxy-6-methylpyrimidine-4-carbonyl)-2,5-diazabicyclo[4.2.0]octan-2-yl]-4-oxo-1,4-dihydro-1,8-naphthyridin-1-yl]acetamide] | –
≤ 5 | < 500 | CCc1c(N2CCN(C(=O)c3ncnc(C)c3O)[C@H]3CC[C@@H]32)c(=O)c2nc(C3CC3)cnc2n1CC(=O)Nc1ccc(C(F)(F)F)cc1F [I-125, 2-(2-cyclopropyl-6-ethyl-7-((1S,6S)-5-(5-hydroxy-6-methylpyrimidine-4-carbonyl)-2,5-diazabicyclo[4.2.0]octan-2-yl)-8-oxopyrido[2,3-b]pyrazin-5(8H)-yl)-N-(2-fluoro-4-(trifluoromethyl)phenyl)acetamide] | –
5 to 50 | < 500 | CCc1c(N2CCN(C(=O)c3ncnc(C)c3O)[C@H]3CC[C@@H]32)c(=O)c2nc(C)c(C)nc2n1CC(=O)Nc1ccc(C(F)(F)F)cc1Cl [I-126, N-(2-chloro-4-(trifluoromethyl)phenyl)-2-(6-ethyl-7-((1S,6S)-5-(5-hydroxy-6-methylpyrimidine-4-carbonyl)-2,5-diazabicyclo[4.2.0]octan-2-yl)-2,3-dimethyl-8-oxopyrido[2,3-b]pyrazin-5(8H)-yl)acetamide] | –

Structure (SMILES) | IC50 [1] [nM] | EC50 [2, 3] [nM] | EC50 [2] [nM]
CCc1c(N2CCN(C(=O)c3ncnc(C)c3O)CC2)c(=O)c2nc(N(C)C)c(F)cc2n1CC(=O)Nc1ccc(C(F)(F)F)cc1Cl [I-109, N-(2-chloro-4-(trifluoromethyl)phenyl)-2-(6-(dimethylamino)-2-ethyl-7-fluoro-3-(4-(5-hydroxy-6-methylpyrimidine-4-carbonyl)piperazin-1-yl)-4-oxo-1,5-naphthyridin-1(4H)-yl)acetamide] | 5 to 50 | – | 500 to 2000
